Reference: patent publication US10738002B2, “Halogenated benzotropolones as ATG4B inhibitors” (Universiteit Antwerpen, priority 2016, dated 2020)
Where two headings read alike, the source gives them in different places.

Legend:
HsAtg4B = biological target: T1, HsAtg4B (Homo sapiens, UniProt Q9Y4P1); assay: SDS-PAGE-based screening assay for Atg4B inhibition (cleavage of LC3B-GST); type: biochemical; details: 500 μM compound concentration; LC3B-GST substrate, 6 minutes; read-out: SDS-PAGE Enzyme inhibition (%)
T1 sequence (Q9Y4P1 1-393): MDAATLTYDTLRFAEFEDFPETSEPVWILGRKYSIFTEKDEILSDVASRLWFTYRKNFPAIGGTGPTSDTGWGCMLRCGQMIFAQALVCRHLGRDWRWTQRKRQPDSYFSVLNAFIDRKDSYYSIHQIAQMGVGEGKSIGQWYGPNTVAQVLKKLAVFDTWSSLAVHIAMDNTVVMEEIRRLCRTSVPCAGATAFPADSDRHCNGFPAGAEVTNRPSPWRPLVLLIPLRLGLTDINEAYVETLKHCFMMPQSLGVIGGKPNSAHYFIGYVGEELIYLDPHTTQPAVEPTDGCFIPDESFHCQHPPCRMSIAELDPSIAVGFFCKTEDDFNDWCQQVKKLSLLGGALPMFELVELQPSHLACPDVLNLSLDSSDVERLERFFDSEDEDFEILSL
Procedure: For each assay, fresh aliquots of enzyme and substrate were thawn, and fresh buffer was used. All substrate and enzyme dilutions were made in LoBind Eppendorf® tubes. Buffer used in the following methods for making appropriate dilutions consisted of 50 mM Tris-HCl pH 7.4, 150 mM NaCl, 2 mM DTT and 0.1% TWEEN 20, freshly prepared at the day of the experiment. 10 μL of Laemmli Sample Buffer was added to each sample to stop enzymatic cleavage of LC3B-GST and the samples were boiled for 4 minutes. The samples were loaded onto a NuPAGE® Novex 12 Bis-Tris 1.0 mm 15 well gel after termination of the enzymatic reaction. A Thermo-Scientific® PageRuler Prestained Protein Ladder was used as a reference for molecular weights of the separated proteins. […] Lane densities were quantified using Totallab Quant® software.

autophagy [1] = details: cited from earlier work
[2] = Metabolic stability in mouse microsomes; type: in vitro ADME; details: for recovery at 30 min, 10 µM: mouse liver microsomes, read-out: Microsomal stability (mouse) recovery of parent compound after 30 min (%); for microsomal stability, comparison in words: mouse microsomes
Procedure: A 5 mM compound solution was prepared in DMSO. A mixture of 713 μL milliQ water (Milli-Q Direct 8, Merck Millipore), 200 μL 0.5 M phosphate buffer (BD Diagnostic Systems, 257385), 50 μL NADPH regenerating system solution A (BD Biosciences), 10 μL NADPH regenerating system solution B (BD Biosciences) and 2 μL compound solution was prepared and heated for 5 min at 37° C. 25 μL of liver microsomes (Corning B.V. Life Sciences) was added to the mixture and 20 μL samples were withdrawn at 0, 15, 30, 60, 120, 240 and 360 minutes. 80 μL (4×20 μL) of cold acetonitrile (Sigma-Aldrich) was added to the samples on ice for 10 minutes. Afterwards, the mixtures were centrifuged at 13000 rpm for 5 minutes at 4° C. A volume of 75 μL of an acetonitrile/water (10/90) mixture was added to 25 μL supernatant and the obtained samples were analyzed by LC-MS/MS in triplicate.

[3] = Plasma stability in mouse plasma; type: in vitro ADME; details: for recovery at 1 h, 50 µM: Non Swiss Albino, 37° C., read-out: Plasma stability (mouse) recovery of parent compound after lh (%); for plasma stability compared to the non-halogenated analogues: comparison in words
Procedure: A 10 mM compound solution was prepared in DMSO (Acros). A 5 μL aliquot was added to 995 μL of mouse plasma (Non Swiss Albino Mouse Plasma, sodium citrate, DivBioScience, IMS-N) to obtain a final solution of 50 μM. The mixture was gently shaken for 6 hours at 37° C. Aliquots of 100 μL were taken at various time points (0, 30, 60, 120, 180, 360 minutes) and diluted with 400 μL of cold methanol (Sigma-Aldrich) (stored at 4° C.). The suspension was centrifuged at 14000 rpm for 5 minutes. Afterwards, 50 μL of the supernatant was diluted with 950 μL of methanol and analyzed with LC-MS/MS (Waters Acquity H-class UPLC system with ion trap mass spectrometer, Bruker Daltonics Esquire 3000 plus, and Agilent 1100 Series LC system). The samples were analyzed in triplicate. A standard curve was plotted using compound concentrations of 3.12-100 μM in mouse plasma.

autophagy [4] = assay: Cellular screening assay for autophagy inhibitors (in our hands); type: cell-based
Jurkat T-cells = assay: CYTO-ID-based phenotypical screening for autophagy inhibition; type: cell-based; details: Homo sapiens, tested at 10 mM concentration + 10 μM everolimus, everolimus-treated = 1 (normalized), control 0.37, read-out: CYTOID assay (autophagy relative to the everolimus-treated group)
Procedure: Final compounds were screened for autophagy/Atg4B inhibition in 3 different assays: a gel-based screening for Atg4B inhibition, a CYTO-ID-based phenotypical screening for autophagy inhibition and a luciferase reporter assay for assessment of intracellular Atg4B inhibition. Initially, all compounds were evaluated using the SDS-PAGE-based screening assay. Each test compound was incubated with [LC3B-GST], a fusion protein of LC3B and glutathione-S-transferase, and Atg4B in Tris-HCl buffer for a fixed time period. Afterwards, residual fusion protein and cleavage products were separated by gel electrophoresis and quantified using optical densitometry. Based on the % of uncleaved substrate, compound activity was expressed as % enzyme inhibition at 500 μM compound concentration. A set of compounds was then subjected to a CYTO ID-based assay (Stankov et al., 2014). This assay is based on selective labelling of autophagic vacuoles in Jurkat T-cells. Quantification of the stained autophagic compartments can then be used for assessment of autophagy modulation. Autophagy induction was obtained by addition of 10 μM everolimus in EtOH in the presence of 10 μM test compound and autophagy inhibition was monitored as a decline in autophagic vacuoles and the corresponding fluorescent signal. […]

| SMILES | recovery at 1 h, 50 µM [3] [%] | recovery at 30 min, 10 µM ([2]; 37° C.) [%] | microsomal stability, comparison in words [2] | plasma stability compared to the non-halogenated analogues [3] | further results |
| --- | --- | --- | --- | --- | --- |
| NC(=O)c1cc(O)c(=O)c2c(O)c(O)c(F)cc2c1 [Compound 31, 2-fluoro-3,4,6-trihydroxy-5-oxo-5H-benzo[7]annulene-8-carboxamide] | – | – | – | – | inhibition at 500 µM (HsAtg4B): 39.9% |
| O=C(O)c1cc(O)c(=O)c2c(O)c(O)ccc2c1 [Shu et al.] | 0 | – | – | – | autophagy inhibition reported by Shu et al. (autophagy [1]): weak autophagy inhibitor; in cellulo autophagy inhibition (reported) (autophagy [1]; in cellulo): no in cellulo autophagy inhibition; recovery at 30 min, 10 µM ([2]; value obtained using linear interpolation): 100%; activity in a cellular screening assay for autophagy inhibitors (autophagy [4]): did not show activity |
| CCCCOC(=O)c1cc(O)c(=O)c2c(O)c(O)c(Br)cc2c1 [Compound 40, Butyl 2-bromo-3,4,6-trihydroxy-5-oxo-5H-benzo[7]annulene-8-carboxylate] | 87 ± 4 | 23 ± 7 | substantial increase | substantial increase | – |
| O=C(O)c1cc(O)c(=O)c2c(O)c(O)c(Br)cc2c1 [Compound 36, 2-bromo-3,4,6-trihydroxy-5-oxo-5H-benzo[7]annulene-8-carboxylic acid] | 19 ± 1 | 100 | substantial increase | substantial increase | – |
| Cn1cnc(N)c2ncnc1-2 [Compound 3-MA, 3-Methyladenine, reference compound] | – | – | – | – | activity at 10000 µM (Jurkat T-cells): 57% |
